From US8440646B1 (priority 2006, dated 2013)
In brackets after ≈: the same amount, converted by molar mass. Read-outs that look alike come from different tables or passages of the source.

Assays:
B. cereus 98/2620 = experiment: microbe, parasite or virus in culture; type: cell-based; settings: Bacillus cereus
B. cereus 95/3032 = experiment: microbe, parasite or virus in culture; type: cell-based; settings: Bacillus cereus
B. cereus 98/2658 = experiment: microbe, parasite or virus in culture; type: cell-based; settings: Bacillus cereus
B. cereus 97/4144 = experiment: microbe, parasite or virus in culture; type: cell-based; settings: Bacillus cereus
S. aureus RN450 = experiment: microbe, parasite or virus in culture; type: cell-based; settings: Staphylococcus aureus
S. aureus MRSA5 = experiment: microbe, parasite or virus in culture; type: cell-based; settings: Staphylococcus aureus
S. pneumoniae 157E [1] = experiment: microbe, parasite or virus in culture; type: cell-based; settings: Streptococcus pneumoniae
S. pneumoniae 700905 [2] = experiment: microbe, parasite or virus in culture; type: cell-based; settings: Streptococcus pneumoniae
[3] = tested on: Protein synthesis of S. aureus RN450; experiment: microbe, parasite or virus in culture; type: cell-based; settings: for IC50 / IC90: Staphylococcus aureus; for IC50: read-out: Protein synthesis IC50; for IC90: read-out: Protein synthesis IC90
[4] = tested on: Peptidoglycan synthesis of S. aureus RN450; experiment: microbe, parasite or virus in culture; type: cell-based; settings: for IC50 / IC90: Staphylococcus aureus; for IC50: read-out: Peptidoglycan synthesis IC50; for IC90: read-out: Peptidoglycan synthesis IC90
S. pneumoniae 157E [5] = tested on: S. pneumoniae 157E; set-up: species or system mice; settings: mouse, in vivo
S. pneumoniae 700905 [6] = tested on: S. pneumoniae 700905; set-up: species or system mice; settings: mouse, in vivo
S. pneumoniae PBS1339 = tested on: S. pneumoniae PBS1339; set-up: species or system mice; settings: mouse, in vivo, po
protein synthesis = settings: cited from earlier work
B. anthracis Vollum1B = experiment: microbe, parasite or virus in culture; type: cell-based; settings: Bacillus anthracis
B. anthracis Sterne = experiment: microbe, parasite or virus in culture; type: cell-based; settings: Bacillus anthracis
B. anthracis Ame = experiment: microbe, parasite or virus in culture; type: cell-based; settings: Bacillus anthracis
B. anthracis V770 = experiment: microbe, parasite or virus in culture; type: cell-based; settings: Bacillus anthracis

## CO/N=C(\C(=O)N[C@@H]1C(=O)N2C(C(=O)O)=C(COC(C)=O)CS[C@H]12)c1csc(N)n1 [Cefotaxime]
B. cereus 98/2620
  MIC: 64 µg/mL (≈ 141 µM)
B. cereus 95/3032
  MIC: > 64 µg/mL
B. cereus 98/2658
  MIC: > 64 µg/mL
B. cereus 97/4144
  MIC: 32 µg/mL (≈ 70.3 µM)

## CN(C)[C@@H]1C(O)=C(C(N)=O)C(=O)[C@@]2(O)C(O)=C3C(=O)c4c(O)ccc(C#Cc5ccc(N)cc5)c4C[C@H]3C[C@@H]12 [AA]
S. aureus RN450
  MIC: 1 µg/mL (≈ 1.89 µM)
S. aureus MRSA5
  MIC: 0.5 µg/mL (≈ 0.944 µM)
S. pneumoniae 157E [1]
  MIC: 0.5 µg/mL (≈ 0.944 µM)
S. pneumoniae 700905 [2]
  MIC: 1 µg/mL (≈ 1.89 µM)
[3]
  macromolecular synthesis profile in words: profile similar to class I compounds
  IC50: 0.14 µg/mL (≈ 0.264 µM)
  IC90: 1.4 µg/mL (≈ 2.64 µM)
[4]
  effect on peptidoglycan biosynthesis in words: affect peptidoglycan biosynthesis
  IC50: 3.8 µg/mL (≈ 7.18 µM)
  IC90: 23 µg/mL (≈ 43.4 µM)

## CN(C)[C@@H]1C(O)=C(C(N)=O)C(=O)[C@@]2(O)C(O)=C3C(=O)c4c(O)ccc(-c5ccc(CO)cc5)c4C[C@H]3C[C@@H]12 [AB]
S. aureus RN450
  MIC: 0.06 µg/mL (≈ 0.115 µM)
S. aureus MRSA5
  MIC: 1 µg/mL (≈ 1.92 µM)
S. pneumoniae 157E [1]
  MIC: 0.06 µg/mL (≈ 0.115 µM)
S. pneumoniae 700905 [2]
  MIC: 4 µg/mL (≈ 7.68 µM)
[3]
  IC50: 0.19 µg/mL (≈ 0.365 µM)
  IC90: 1.8 µg/mL (≈ 3.46 µM)
[4]
  IC50: 18.3 µg/mL (≈ 35.2 µM)
  IC90: > 32 µg/mL

## CCC[C@@H]1C[C@@H](C(=O)N[C@@H]([C@H]2O[C@H](SC)[C@H](O)[C@@H](O)[C@H]2O)[C@H](C)Cl)N(C)C1 [Clindamycin]
B. cereus 98/2620
  MIC: 0.25 µg/mL (≈ 0.588 µM)
B. cereus 95/3032
  MIC: 0.5 µg/mL (≈ 1.18 µM)
B. cereus 98/2658
  MIC: 0.5 µg/mL (≈ 1.18 µM)
B. cereus 97/4144
  MIC: 0.5 µg/mL (≈ 1.18 µM)

## CN[C@H](CC(C)C)C(=O)N[C@H]1C(=O)N[C@@H](CC(N)=O)C(=O)N[C@H]2C(=O)N[C@H]3C(=O)N[C@H](C(=O)N[C@H](C(=O)O)c4cc(O)cc(O)c4-c4cc3ccc4O)[C@H](O)c3ccc(c(Cl)c3)Oc3cc2cc(c3O[C@@H]2O[C@H](CO)[C@@H](O)[C@H](O)[C@H]2O[C@H]2C[C@](C)(N)[C@H](O)[C@H](C)O2)Oc2ccc(cc2Cl)[C@H]1O [Vancomycin]
B. cereus 98/2620
  MIC: 1 µg/mL (≈ 0.69 µM)
B. cereus 95/3032
  MIC: 1 µg/mL (≈ 0.69 µM)
B. cereus 98/2658
  MIC: 2 µg/mL (≈ 1.38 µM)
B. cereus 97/4144
  MIC: 1 µg/mL (≈ 0.69 µM)

## CN(CCCc1cc(N(C)C)c2c(c1O)C(=O)C1=C(O)[C@]3(O)C(=O)C(C(N)=O)=C(O)[C@@H](N(C)C)[C@@H]3C[C@@H]1C2)Cc1ccccc1 [AK]
S. aureus RN450
  MIC: 1 µg/mL (≈ 1.62 µM)
S. aureus MRSA5
  MIC: 2 µg/mL (≈ 3.23 µM)
S. pneumoniae 157E [1]
  MIC: 0.5 µg/mL (≈ 0.808 µM)
S. pneumoniae 700905 [2]
  MIC: 0.5 µg/mL (≈ 0.808 µM)

## CC1(C)S[C@@H]2[C@H](NC(=O)[C@H](N)c3ccccc3)C(=O)N2[C@H]1C(=O)O [Ampicillin, reference compound]
S. pneumoniae 157E [5]; iv
  PD50: 0.6 mg/kg
S. pneumoniae 157E [5]; po
  PD50: 1.1 mg/kg
S. pneumoniae 700905 [6]; iv
  PD50: 43.7 mg/kg
S. pneumoniae 700905 [6]; po
  PD50: >50 mg/kg
S. pneumoniae PBS1339
  PD50: 3.2 mg/kg

## CC[C@H]1OC(=O)[C@H](C)[C@@H](O[C@H]2C[C@@](C)(OC)[C@@H](O)[C@H](C)O2)[C@H](C)[C@@H](O[C@@H]2O[C@H](C)C[C@H](N(C)C)[C@H]2O)[C@](C)(O)C[C@@H](C)C(=O)[C@H](C)[C@@H](O)[C@]1(C)O [Erythromycin]
B. cereus 98/2620
  MIC: 0.06 µg/mL (≈ 0.0818 µM)
B. cereus 95/3032
  MIC: 0.125 µg/mL (≈ 0.17 µM)
B. cereus 98/2658
  MIC: 1 µg/mL (≈ 1.36 µM)
B. cereus 97/4144
  MIC: 0.125 µg/mL (≈ 0.17 µM)

## Cc1c2c(c(O)c3c(O)ccc(Cl)c13)C(=O)C1(O)C(=O)C(C(N)=O)=C(O)C(N(C)C)C1C2 (stereo not drawn) [4-epi-anhydrochlorotet]
Protein synthesis
  inhibition of protein synthesis in words: weak effects

## CN(C)[C@@H]1C(O)=C(C(N)=O)C(=O)[C@@]2(O)C(O)=C3C(=O)c4c(O)ccc(-c5ccc(NC(=O)c6ccno6)cc5)c4C[C@H]3C[C@@H]12 [AE]
S. aureus RN450
  MIC: 0.06 µg/mL (≈ 0.0999 µM)
S. aureus MRSA5
  MIC: 0.5 µg/mL (≈ 0.833 µM)
S. pneumoniae 157E [1]
  MIC: 0.13 µg/mL (≈ 0.216 µM)
S. pneumoniae 700905 [2]
  MIC: 1 µg/mL (≈ 1.67 µM)
[3]
  IC50: 0.07 µg/mL (≈ 0.117 µM)
  IC90: 0.62 µg/mL (≈ 1.03 µM)
[4]
  IC50: 6 µg/mL (≈ 9.99 µM)
  IC90: > 32 µg/mL

## O=C(O)c1cn(C2CC2)c2cc(N3CCNCC3)c(F)cc2c1=O [Ciprofloxacin, reference compound]
B. anthracis Vollum1B
  MIC: 0.25 µg/mL (≈ 0.754 µM)
B. anthracis Sterne
  MIC: 0.25 µg/mL (≈ 0.754 µM)
B. anthracis Ame
  MIC: 0.25 µg/mL (≈ 0.754 µM)
B. anthracis V770
  MIC: 0.12 µg/mL (≈ 0.362 µM)
S. pneumoniae 157E [5]; iv
  PD50: >50 mg/kg
S. pneumoniae 700905 [6]; po
  PD50: >50 mg/kg
